Experimental data as given in patent US20250340538A1, “IMIDAZOLONE DERIVATIVES AS INHIBITORS OF PROTEIN KINASES IN PARTICULAR DYRK1A, CLK1 AND/OR CLK4” (PERHA PHARMACEUTICALS, priority 2021, published 2025).
Read-outs that look alike come from different tables or passages of the source.

Tests used:
[1] = target: T1, CLK1 (Homo sapiens, UniProt P49759); test: Radiometric protein kinase assay (33PanQinase Activity Assay), CLK1; assay type: biochemical; conditions: read-out: Potency Class CLK1
T1 construct: GST-fusion or His-tag (not specified per kinase); purchased ProQinase GmbH; host or cells: Sf9 insect cells or E. coli (not specified per kinase)
T1 sequence (P49759 whole entry, the tested form may be a part): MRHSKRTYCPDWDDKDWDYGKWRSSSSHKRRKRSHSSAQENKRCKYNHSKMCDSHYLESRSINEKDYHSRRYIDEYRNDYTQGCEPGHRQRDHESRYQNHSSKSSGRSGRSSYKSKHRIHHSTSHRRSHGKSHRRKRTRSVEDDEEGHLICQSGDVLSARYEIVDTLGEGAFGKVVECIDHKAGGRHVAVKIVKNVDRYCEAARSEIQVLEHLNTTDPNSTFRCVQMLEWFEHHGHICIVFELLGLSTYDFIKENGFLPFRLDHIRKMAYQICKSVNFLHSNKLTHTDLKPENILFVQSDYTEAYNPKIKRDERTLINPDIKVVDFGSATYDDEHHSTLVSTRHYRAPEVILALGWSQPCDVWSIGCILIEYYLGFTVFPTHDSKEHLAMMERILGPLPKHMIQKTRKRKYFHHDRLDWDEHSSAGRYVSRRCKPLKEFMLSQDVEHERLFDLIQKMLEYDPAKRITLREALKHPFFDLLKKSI
Procedure: Assays were performed by ProQinase GmbH (Engesserstr. 4, D-79108 Freiburg, Germany. www.proqinase.com). The IC50 profile of all compounds was determined using 12 protein kinases (CDK2/cyclin E, CK1ε, CLK1, 2, 3, 4, DYRK1A, 1B, 2, 3, 4, GSK3β).
(§1) The compounds were provided as […] in 100% DMSO. Prior to testing, the 1 μM stock solutions were subjected to a serial, semi-logarithmic dilution using 100% DMSO as a solvent. […] In the process, 90 μl H2O were added to each well of each compound dilution plate. To minimize potential precipitation, the H2O was added to each plate only a few minutes before the transfer of the compound solutions into the assay plates. The plate was shaken thoroughly, resulting in a compound dilution plate/10% DMSO.
(§2) For the assays (see below), 5 μL solution from each well of the compound dilution plates/10% DMSO were transferred into the assay plates. The final volume of the assay was 50 μL. All compounds were tested at 10 final assay concentrations in the range from 10 μM to 30 nM. The final DMSO concentration in the reaction cocktails was 1% in all cases.
(§3) All protein kinases provided by ProQinase were expressed in Sf9 insect cells or in E. coli as recombinant GST-fusion proteins or His-tagged proteins, either as full-length or enzymatically active fragments. All kinases were produced from human cDNAs and purified by either GSH-affinity chromatography or immobilized metal. Affinity tags were removed from a number of kinases during purification. The purity of the protein kinases was examined by SDS-PAGE/Coomassie staining, the identity was checked by mass spectroscopy.
(§4) A radiometric protein kinase assay (33PanQinase® Activity Assay) was used for measuring the kinase activity of the 12 protein kinases. All kinase assays were performed in 96-well FlashPlates™ from PerkinElmer (Boston, MA, USA) in a 50 μL reaction volume. The reaction cocktail was pipetted in four steps in the following order: • 25 μL of assay buffer (standard buffer/[γ-^33P]-ATP), • 10 μL of ATP solution (in H2O), • 5 μL of test compound (in 10% DMSO), • 10 μL of enzyme/substrate mixture.
(§5) The reaction cocktails were incubated at 30° C. for 60 minutes. The reaction was stopped with 50 μL of 2% (v/v) H3PO4, plates were aspirated and washed two times with 200 μL 0.9% (w/v) NaCl. Incorporation of ^33Pi was determined with a microplate scintillation counter (Microbeta, Wallac). The IC50 values for all compounds were calculated from the dose response curves
As a parameter for assay quality, the Z′-factor (Zhang et al., J. Biomol. Screen. 2: 67-73, 1999) for the low and high controls of each assay plate (n=8) was used. ProQinase's criterion for repetition of an assay plate is a Z′-factor below 0.4 (Iversen et al., J. Biomol. Screen. 3: 247-252, 2006).

[2] = target: T2, DYRK1A (Homo sapiens, UniProt Q13627); test: Radiometric protein kinase assay (33PanQinase Activity Assay), DYRK1A; assay type: biochemical; conditions: for Selectivity Class DYRK1A vs. CLK1: ratio of IC50 on CLK1 over IC50 on DYRK1A; for Selectivity Class DYRK1A vs. DYRK1B: ratio of IC50 on DYRK1B over IC50 on DYRK1A
T2 construct: GST-fusion or His-tag (not specified per kinase); purchased ProQinase GmbH; host or cells: Sf9 insect cells or E. coli (not specified per kinase)
Procedure: The IC50 profile of all compounds was determined using 12 protein kinases (CDK2/cyclin E, CK1ε, CLK1, 2, 3, 4, DYRK1A, 1B, 2, 3, 4, GSK3β).
as §1, §2, §3, §4, §5

[3] = class by IC50 on CLK1, from dose-response curves
[4] = class by IC50 on DYRK1A, from dose-response curves, read-out: Potency Class DYRK1A

Row | Structure (SMILES) | IC50 [1, 3] | IC50 [2, 4] | Selectivity Class DYRK1A vs. CLK1 [2] | Selectivity Class DYRK1A vs. DYRK1B [2] | IC50 ([2]; IC50 class A to E, read-out: Potency Class DYRK1A) | IC50 ([2]; read-out: IC50 on DYRK1A (most potent DYRK1A inhibitors)) | IC50 ([1]; IC50 class A to E)
1 | CO[C@H]1CCC[C@@H]1NC1=N/C(=C\c2ccc3nccnc3c2)C(=O)N1 [Compound 5, (4Z)-2-[[(1S,2S)-2-Methoxycyclopentyl]amino]-4-(quinoxalin-6-ylmethylene)-1H-imidazol-5-one] | > 0.05 µM | > 0.05 µM | III (ratio between 0.5 and 2 fold) | II (ratio between 2 and 10 fold) | – | – | –
2 | COC[C@@H](CC(C)C)NC1=N/C(=C\c2ccc3nccnc3c2)C(=O)N1 [Compound 10, (4Z)-2-[[(1R)-1-(methoxymethyl)-3-methyl-butyl]amino]-4-(quinoxalin-6-ylmethylene)-1H-imidazol-5-one] | > 0.05 µM | – | – | – | – | – | –
3 | CCOC[C@@H](CC(C)C)NC1=N/C(=C\c2ccc3nccnc3c2)C(=O)N1 [Compound 11, (4Z)-2-[[(1R)-1-(ethoxymethyl)-3-methyl-butyl]amino]-4-(quinoxalin-6-ylmethylene)-1H-imidazol-5-one] | > 0.05 µM | 0.01 to 0.025 µM | I (ratio of IC50 on CLK1 or DYRK1B over IC50 on DYRK1A ≥10 fold (most DYRK1A-selective compounds)) | II (ratio between 2 and 10 fold) | – | – | –
4 | CC(C)C[C@H](COCc1ccccc1)NC1=N/C(=C\c2ccc3nccnc3c2)C(=O)N1 [Compound 12, (4Z)-2-[[(1R)-1-(benzyloxymethyl)-3-methyl-butyl]amino]-4-(quinoxalin-6-ylmethylene)-1H-imidazol-5-one] | > 0.05 µM | > 0.05 µM | I (ratio of IC50 on CLK1 or DYRK1B over IC50 on DYRK1A ≥10 fold (most DYRK1A-selective compounds)) | II (ratio between 2 and 10 fold) | – | – | –
5 | CC(C)C[C@H](COCc1ccc(F)cc1)NC1=N/C(=C\c2ccc3nccnc3c2)C(=O)N1 [Compound 13, (4Z)-2-[[(1R)-1-[(4-fluorophenyl)methoxymethyl]-3-methyl-butyl]amino]-4-(quinoxalin-6-ylmethylene)-1H-imidazol-5-one] | > 0.05 µM | – | – | – | – | – | –
6 | CC(C)C[C@H](CF)NC1=N/C(=C\c2ccc3nccnc3c2)C(=O)N1 [Compound 14, (4Z)-2-[[(1R)-1-(fluoromethyl)-3-methyl-butyl]amino]-4-(quinoxalin-6-ylmethylene)-1H-imidazol-5-one] | > 0.05 µM | 0.01 to 0.025 µM | II (ratio between 2 and 10 fold) | II (ratio between 2 and 10 fold) | – | – | –
7 | CC(C)C[C@@H](CF)NC1=N/C(=C\c2ccc3nccnc3c2)C(=O)N1 [Compound 15, (4Z)-2-[[(1S)-1-(Fluoromethyl)-3-methyl-butyl]amino]-4-(quinoxalin-6-ylmethylene)-1H-imidazol-5-one] | > 0.05 µM | > 0.05 µM | III (ratio between 0.5 and 2 fold) | III (ratio between 0.5 and 2 fold) | – | – | –
8 | O=C1NC(NCc2ccccc2)=N/C1=C\c1ccc2nccnc2c1 [Compound 21] | > 0.05 µM | > 0.05 µM | III (ratio between 0.5 and 2 fold) | II (ratio between 2 and 10 fold) | – | – | –
9 | O=C1NC(N[C@H](CO)c2ccccc2)=N/C1=C\c1ccc2nccnc2c1 [Compound 25, (4Z)-2-[[(1S)-2-Hydroxy-1-phenyl-ethyl]amino]-4-(quinoxalin-6-ylmethylene)-1H-imidazol-5-one] | > 0.05 µM | – | – | – | – | – | –
10 | O=C1NC(NC2CCCCC2)=N/C1=C\c1ccc2nccnc2c1 [Compound 74, (4Z)-2-(Cyclohexylamino)-4-(quinoxalin-6-ylmethylene)-1H-imidazol-5-one] | > 0.05 µM | – | – | – | – | – | –

More lines, now with the values ahead:

Row | IC50 [1, 3] | IC50 [2, 4] | Selectivity Class DYRK1A vs. CLK1 [2] | Selectivity Class DYRK1A vs. DYRK1B [2] | IC50 ([2]; IC50 class A to E, read-out: Potency Class DYRK1A) | IC50 ([2]; read-out: IC50 on DYRK1A (most potent DYRK1A inhibitors)) | IC50 ([1]; IC50 class A to E) | Structure (SMILES)
11 | > 0.05 µM | – | – | – | – | – | – | O=C1NC(N[C@@H]2CCC[C@@H](O)CC2)=N/C1=C\c1ccc2nccnc2c1 (racemic) [Compound 6, (±)-(4Z)-2-[[trans-4-hydroxycycloheptyl]amino]-4-(quinoxalin-6-ylmethylene)-1H-imidazol-5-one]
12 | > 0.05 µM | > 0.05 µM | II (ratio between 2 and 10 fold) | II (ratio between 2 and 10 fold) | – | – | – | CO[C@@H]1CCC[C@@H](NC2=N/C(=C\c3ccc4nccnc4c3)C(=O)N2)CC1 (racemic) [Compound 7, (+)-(4Z)-2-[[trans-4-methoxycycloheptyl]amino]-4-(quinoxalin-6-ylmethylene)-1H-imidazol-5-one]
13 | > 0.05 µM | – | – | – | – | – | – | CO[C@H]1CCCC[C@@H](NC2=N/C(=C\c3ccc4nccnc4c3)C(=O)N2)C1 (racemic) [Compound 8, (+)-(4Z)-2-[[cis-3-methoxycycloheptyl]amino]-4-(quinoxalin-6-ylmethylene)-1H-imidazol-5-one]
14 | > 0.05 µM | > 0.05 µM | II (ratio between 2 and 10 fold) | II (ratio between 2 and 10 fold) | – | – | – | CC1(C)CCC(NC2=N/C(=C\c3ccc4nccnc4c3)C(=O)N2)CO1 (racemic) [Compound 36, (±)-(4Z)-2-[(6,6-dimethyltetrahydropyran-3-yl)amino]-4-(quinoxalin-6-ylmethylene)-1H-imidazol-5-one]
15 | > 0.05 µM | > 0.05 µM | III (ratio between 0.5 and 2 fold) | II (ratio between 2 and 10 fold) | – | – | – | O=C1NC(NC2CCCCOC2)=N/C1=C\c1ccc2nccnc2c1 (racemic) [Compound 41, (4Z)-2-(Oxepan-3-ylamino)-4-(quinoxalin-6-ylmethylene)-1H-imidazol-5-one]
16 | > 0.05 µM | – | – | – | – | – | – | O=C1NC(NC2CCCCCC2)=N/C1=C\c1ccc2nccnc2c1 [Compound 1, (4Z)-2-(cycloheptylamino)-4-(quinoxalin-6-ylmethylene)-1H-imidazol-5-one]
17 | > 0.05 µM | – | – | – | – | – | – | O=C1NC(NC2CCCCCCC2)=N/C1=C\c1ccc2nccnc2c1 [Compound 2, (4Z)-2-(cyclooctylamino)-4-(quinoxalin-6-ylmethylene)-1H-imidazol-5-one]
18 | > 0.05 µM | > 0.05 µM | III (ratio between 0.5 and 2 fold) | II (ratio between 2 and 10 fold) | – | – | – | O=C1NC(NCC2CCCCC2)=N/C1=C\c1ccc2nccnc2c1 [Compound 3, (4Z)-2-(cyclohexylmethylamino)-4-(quinoxalin-6-ylmethylene)-1H-imidazol-5-one]
19 | > 0.05 µM | > 0.05 µM | II (ratio between 2 and 10 fold) | II (ratio between 2 and 10 fold) | – | – | – | CO[C@@H]1CCC[C@H]1NC1=N/C(=C\c2ccc3nccnc3c2)C(=O)N1 [Compound 4, (4Z)-2-[[(1R,2R)-2-methoxycyclopentyl]amino]-4-(quinoxalin-6-ylmethylene)-1H-imidazol-5-one]
20 | 0.025 to 0.05 µM | 0.005 to 0.01 µM | II (ratio between 2 and 10 fold) | II (ratio between 2 and 10 fold) | 0.005 to 0.01 µM | ≤ 0.01 µM | 0.025 to 0.05 µM | CC(C)C[C@H](CO)NC1=N/C(=C\c2ccc3nccnc3c2)C(=O)N1 [Compound 9, (4Z)-2-[[(1R)-1-(hydroxymethyl)-3-methyl-butyl]amino]-4-(quinoxalin-6-ylmethylene)-1H-imidazol-5-one]
21 | 0.025 to 0.05 µM | – | – | – | – | – | – | O=C1NC(N[C@@H](CO)c2ccccc2)=N/C1=C\c1ccc2nccnc2c1 [Compound 24, (4Z)-2-[[(1R)-2-hydroxy-1-phenyl-ethyl]amino]-4-(quinoxalin-6-ylmethylene)-1H-imidazol-5-one]
